Measurements as given in a melting point compilation (Tetko et al.; mined from patent text by program, amines drawn as free bases though some values may be those of a salt).

Structure (SMILES)	melting point [°C]
Cc1cc(SC(C)c2ccc3cn(-c4ccc(C(F)(F)F)cc4)nc3c2)ccc1OC(C)(C)C(=O)O (racemic)	114 to 116
O=C(/C=C/c1cc(O)c(O)c([N+](=O)[O-])c1)CCCCC(=O)Nc1ccc(C(F)(F)F)cc1	194 to 197
Fc1cccc2c1OC(CN1CC=C(c3c[nH]c4ccccc34)CC1)CO2 (configuration not stated)	174 to 177
Cc1cc(Oc2c(F)cc(C(F)(F)F)cc2Cl)nn1C(=O)NCCBr	85 to 86
Cc1nc(Cl)cc(NN)n1	146
C=CCNc1nc(NC/C=C/c2ccccc2)c2scc(C)c2n1	82 to 84
COC(=O)c1ccc2c(oc3ccccc32)c1C(=O)OC	123
CC1(C)CC(=O)c2cccc(C(=O)O)c2C1	167 to 168
Cc1ccc(S(=O)(=O)OC[C@H]2CC[C@H](c3ccccc3)CC2)cc1	108 to 109
COc1cc(-c2ccccc2C)ccc1C(=O)N1Cc2ccc(C(=O)N(C)CC(O)C(O)C(O)C(O)CO)n2Cc2ccccc21 (configuration not stated)	144 to 146
CCc1[nH]n(C2CCCC2)c2nc(-c3ccnc(C)c3)nc(=O)c1-2	258 to 259
NC(=O)COC(=O)c1c(Cl)cccc1Cl	114 to 116
CCCCCCCCCCCCCCOc1ccc(CC(=O)Nc2ccc(-n3ccnc3C)cc2)cc1	106 to 109
O=S(=O)(CCCCl)c1ccccc1	55 to 58
Cc1ccc(Cl)c(Nc2ccccc2CON=CC(=O)O)c1Cl	185 to 187
Nc1nc2ccccc2c2c1ncn2CCCCCC(=O)N1CCOCC1	166 to 168
CCOc1nnc(-c2ccc(C(F)(F)F)cc2)[nH]1	151 to 152
CCCCCCCNC(=O)Nc1ccccc1C=Cc1cc(C(C)(C)C)c(O)c(C(C)(C)C)c1	162 to 164
O=CN(O)C(CS(=O)(=O)c1ccc(-c2ccc(OC(F)(F)F)cc2)cc1)c1ccccn1 (configuration not stated)	116 to 118
CC(C)(C)c1cc(NC(=O)NCCc2ccc([N+](=O)[O-])cc2)cc(C(C)(C)C)c1O	185 to 187
CCc1cn(C2CC(O)(C(C)=O)C(CO)O2)c(=O)[nH]c1=O (configuration not stated)	150
CC(C)(C)C1CC=C(c2cc(C(F)(F)F)cc3[nH]c(N4CCN(c5ncccc5C(F)(F)F)CC4)nc23)CC1 (configuration not stated)	96 to 97.7
Oc1cccc(NCc2ccccc2)n1	158 to 162
O=c1ccn(CCO)c(C(O)c2cccnc2)c1O (configuration not stated)	189 to 190
COC(OC)/C(=C/c1ccc(Cl)cc1Cl)c1ccc(Cl)cc1	87 to 90
Nc1ncc2c(n1)N(c1cccc(CCO)c1)C(=O)N(c1ccccc1Br)C2	154

Structure (SMILES)	melting point [°C]
CC(C)(C)c1nc2cc(N3CCCCC3)c([N+](=O)[O-])cc2s1	147 to 148
O=C/C=C/c1c(Cl)cc(Cl)cc1OCc1ccccc1	109 to 112
CC(C)(C)C(=O)c1sc(NC(=O)c2ccncc2)nc1-c1ccco1	240 to 245
Oc1cc(Br)cc(O)c1F	83 to 86
O=c1ccn(CCO)c(C(O)c2ccccc2OCc2ccccc2)c1OCc1ccccc1 (configuration not stated)	196 to 197
O=C1NC(C(=O)NCCO[N+](=O)[O-])C(c2cccc3ccccc23)S1 (configuration not stated)	151 to 153
CC(C)[C@H](NC(=O)N(C)Cc1cscn1)C(=O)N[C@@H](Cc1ccccc1)C[C@H](O)[C@H](Cc1ccccc1)NC(=O)[C@@H](NC(=O)N(C)Cc1cscn1)C(C)C	154 to 156
NC(=O)Oc1ccc2c(c1)[nH]c(=O)c1c3ccc(OC(N)=O)cc3oc21	215 to 220
Nc1ncnc2c1c(-c1ccc(Oc3ccccc3)cc1)cn2CC(=O)NCCN1CCNCC1	138 to 140
CC(=O)c1ccc(OCCCBr)c(Br)c1	83 to 84
Cc1cc(NC(=O)c2cnn(-c3ccc(C(F)(F)F)cc3)c2C)ccc1N1CCC(N2CCOCC2)CC1	252 to 255
CC(C)(C)OC(=O)NCCCCCC(=O)Nc1cccnc1	96 to 98
CC1CCN(CC#CCN2C(=O)c3cccc4c3N(CC4)c3ccc(Br)cc32)CC1	154 to 155
COC(=O)c1ccc(C(=O)NCc2cc(OC)cc(OC)c2)cc1Cl	101 to 103
Nc1nc(-n2cc(C(=O)O)c(=O)c3c(F)c(F)c(F)c(F)c32)c(F)cc1F	236 to 242
CCOC(=O)c1cnc2cc(NC(C)=O)ccc2c1O	295 to 300
O=C1COc2cc(SCc3ccc(Cl)cc3)ccc2N1	174 to 175
Cc1c(C)c(C)c2c(c1C)CCCC2	81.5 to 82
Oc1cc(-c2ccc(Cl)cc2F)n[nH]1	194
COc1ccc2c(c1OC)CCC2C(=O)O (configuration not stated)	128 to 130
COc1cc(-c2cnc3[nH]cc(C(=O)C(C)(C)CO)c3n2)cc(OC)c1OC	227 to 229
COc1cc2c(cc1SCC(=O)O)oc1ccccc12	180 to 182
O=C(c1ccc(-n2cccn2)nc1Cl)N1Cc2cccn2Cc2ccccc21	133 to 135
Cc1sc(C(N)=O)c2c1-c1nn(CC(F)(F)F)cc1CC2	227 to 228
Cc1ccc(-c2cc(Br)c3c(c2)CCC(=O)N3)c(C)n1	194 to 195
COC(=O)c1cc(N)c(N)cc1OC	> 300

Structure (SMILES)	melting point [°C]
CCOC(=O)c1cc(C(=O)OCC)n(C(C)c2ccccn2)n1 (configuration not stated)	63 to 65
CCOC(=O)c1cnc(-c2ccccc2)nc1Nc1ccccc1N	154 to 156
COC(=O)NNc1cc(C)c(-c2cccc([N+](=O)[O-])c2)nn1	198 to 199
CCCCCC(=O)C=[PH2]c1ccccc1	73 to 74
Cc1ccc2[nH]cc(C3C(=O)N(C)C(=O)C3c3cn(C)c4ccc(C)cc34)c2c1 (configuration not stated)	103 to 105
COC(=O)Nc1ccc(N)c(NCCO)c1	240 to 242
CC12CCC(O)CC1=CCC1C2CCC2(C)C(n3nccn3)=CCC12 (configuration not stated)	176 to 177
CC(C)(N)CCOc1ccc(C2=NNC(=O)CC2)cc1Cl	152 to 156
CC(C(=O)C(C)(C)CF)n1cncn1 (configuration not stated)	62 to 78
NC(=O)CCCSc1cccc(NC(N)=NCC(F)(F)F)n1	138 to 141
Cc1c(C)c2c(c(C)c1NC(=O)NCCCO)C(c1ccc(C(C)C)cc1)CO2 (configuration not stated)	185 to 186
CSC(=S)NN=Cc1c[nH]c(C)n1	274 to 279
COc1ccc(Oc2nc(Oc3ccc(OC)c(F)c3)nc(Oc3ccc(OC)c(F)c3)n2)cc1F	> 210
COC(=O)c1cncn1C1c2ccccc2C2OC2C1(C)C (configuration not stated)	60 to 68
COc1ccc(-c2nn(Cc3cccnc3)c(=O)cc2-c2ccncc2)cc1	162
COc1ccc(NC(=O)Nc2ccc(C(=O)O)cc2)cc1C12CC3CC(CC(C3)C1)C2	140 to 141
COc1ccc2c(-c3ccc(Br)cc3)csc2c1	102 to 104
COc1c(F)c(F)c(C(=O)C=C2OC(=O)c3ccccc32)c(F)c1F	199 to 200
O=C(NCCN1CCOCC1)c1nnc2ccccc2c1O	196 to 198
O=c1[nH]nccc1NCCCNCCOc1cccc2c1OCCO2	118 to 120
CC(C)(C)c1ccc(/C=N/OCCCOc2ccc(C(=O)O)c(NC(=O)c3ccc4ccccc4c3)c2)cc1	156 to 158
CCCCCCCNC(=O)CCCCCCCSc1nc(-c2ccccc2)c(-c2ccccc2)[nH]1	119 to 120
CS(=O)(=O)Nc1cnccc1CCCOc1cccnc1Oc1cccc(Cl)c1	131 to 133
CSc1c(C)n(C)c2ccccc12	50 to 52
COC(=O)COc1ccc(CC2SC(=O)NC2=O)cc1 (configuration not stated)	100 to 106
CC(=O)OC1CSC(Oc2ccc(C)nc2-c2ccoc2)C(OC(C)=O)C1OC(C)=O (configuration not stated)	117

Structure (SMILES)	melting point [°C]
COc1cc(COc2nn(-c3ccccc3)cc2CCO)ccc1OCc1nc(-c2ccco2)oc1C	123 to 124
CCCc1ccc(OC)c2c(C)c(C(=O)OCC)oc12	43 to 46
COCOc1ccc2cc(C3CCN(C)CC3)[nH]c(=O)c2c1	200 to 202
CN(C(CCn1c(=O)[nH]c2cscc2c1=O)C(=O)NO)S(=O)(=O)c1ccc(Oc2ccccc2)cc1 (configuration not stated)	135 to 137
Clc1ccccc1CSc1nc2cccc3c2n1CCC3	157 to 159
CCc1cc(-c2ccncc2)cc(CC)c1C(C(N)=O)C(N)=O	184 to 186
COc1ccc(C(=O)Nc2ccncc2)c2c3cc(Cl)ccc3n(Cc3ccc(F)cc3)c12	241 to 245
C=CCOc1ccc(OC)c2ccccc12	30.5 to 32
CCOC(=O)CC(=O)c1ccc(NC(C)=O)cc1	93 to 94
CC(=O)NCC1CC(c2ccc(-n3ccc(C#N)c3)c(F)c2)=NO1 (single isomer, unassigned; (-))	159 to 161
C=CCONC(=O)c1nc(Cl)cc(N)c1Cl	161 to 163
COc1ccc(Cn2cnc3c(-c4ccco4)ncnc32)cc1	175 to 176
CC1Cc2cc3c(cc2C1)CC(C(=N)NO)C3	194 to 195
CCCCCCCCCCNC(=O)c1ccc(C(=O)NCCCCCCCCCC)c([N+](=O)[O-])c1	159 to 160
COc1c(C)oc2c(-n3c(=O)cc(C(F)(F)F)n(C)c3=O)c(F)cc(Cl)c12	57 to 60
COc1ccc2c(c1)c(OC(C)C)c(C(=O)O)n2C	110 to 112
C#CCC#CCC#CCOc1ccc(C)cc1	34.5 to 35.5
CCOC(=O)C(C)(C)c1ccc(C2=NC(C)(C)Cc3cc(OC)c4c(c32)CC(C)(C)O4)cc1	150 to 151
COc1ccc(-c2nc(N(C)C)c3c(C)c(C#N)sc3n2)cc1	123 to 125
CN1C(=O)C(c2ccc(OC(F)F)cc2)(c2cccc(C(F)CCCF)c2)N=C1N (configuration not stated)	54 to 57
CC(C)Cn1c(CNC(=O)OC(C)(C)C)c(-c2ccc(F)cc2)c2cc(OCc3ccccc3)ccc2c1=O	184 to 185
CC(=O)c1nc2ccc(Cl)cc2cc1OCc1ccccc1	107 to 110
COc1ccc2c(Cc3c(Cl)cncc3Cl)nnc(N3CCCC3)c2c1	170 to 172
CCC1(CC)C(=N)N(c2ccc(C#N)c(C(F)(F)F)c2)C(=S)N1C	167 to 168
